Tests used:
Serine protease 1 = target: T1, Serine protease 1 (Bos taurus, UniProt P00760); assay: Competitive inhibition of trypsin
T1 sequence (P00760 whole entry): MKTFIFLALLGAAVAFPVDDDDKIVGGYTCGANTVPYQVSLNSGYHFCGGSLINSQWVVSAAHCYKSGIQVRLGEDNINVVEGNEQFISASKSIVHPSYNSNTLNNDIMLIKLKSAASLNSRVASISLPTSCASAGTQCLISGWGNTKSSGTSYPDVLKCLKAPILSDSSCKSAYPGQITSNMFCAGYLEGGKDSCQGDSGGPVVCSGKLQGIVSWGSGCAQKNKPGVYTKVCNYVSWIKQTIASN

Prothrombin [1] = target: T2, Prothrombin (Homo sapiens, UniProt P00734); assay: Competitive inhibition of coagulation factor IIa
[2] = target: Serine protease 1 (Homo sapiens) (UniProt P07477); assay: The selectivity ratio for Trypsin and Coagulation factor Xa was determined
Prothrombin [3] = target: T2, Prothrombin; assay: Concentration required for twofold increase in thrombin clotting time in human plasma; type: functional, cell-free
Coagulation factor X = Coagulation factor X (Homo sapiens, UniProt P00742); assay: Competitive inhibition of coagulation factor Xa
Prothrombin [4] = target: T2, Prothrombin; assay: Concentration required to double the prothrombin based clotting time in human plasma; type: functional, cell-free

SMILES: CC(=N)N1CCC(Oc2ccc(NC/C=C/c3cc(C(=N)N)ccc3O)cc2C(F)(F)F)CC1
- Ki (Serine protease 1): 200 nM
- Ki (Prothrombin [1]): 1100 nM
- Ratio [2]: 2000
- Concentration (Prothrombin [3]): 210 µM
- Ki (Coagulation factor X): 0.1 nM
- Concentration (Prothrombin [4]): 1.05 µM

SMILES: CC(=N)N1CCC(Oc2ccc3c(nc(C)n3Cc3ccc4ccc(C(=N)N)cc4c3)c2[N+](=O)[O-])CC1
- Ki (Serine protease 1): 3 nM
- Ki (Prothrombin [1]): 5000 nM
- Ki (Coagulation factor X): 0.3 nM

SMILES: CCOC(=O)c1cc(NC/C=C/c2cccc(C(=N)N)c2)ccc1OC1CCN(C(C)=N)CC1
- Ki (Serine protease 1): 40 nM
- Ki (Prothrombin [1]): 480 nM
- Concentration (Prothrombin [3]): 15 µM
- Ki (Coagulation factor X): 6.8 nM
- Concentration (Prothrombin [4]): 2.6 µM

SMILES: CC(=N)N1CCC(Oc2ccc(NCc3ccc4ccc(C(=N)N)cc4c3)cc2[N+](=O)[O-])CC1
- Ki (Serine protease 1): 7 nM
- Ki (Prothrombin [1]): 1960 nM
- Ki (Coagulation factor X): 0.08 nM

SMILES: CC(=N)N1CCC(Oc2ccc(NC/C=C/c3cccc(C(=N)N)c3)cc2F)CC1
- Ki (Serine protease 1): 70 nM
- Ki (Prothrombin [1]): 4700 nM
- Concentration (Prothrombin [3]): 240 µM
- Ki (Coagulation factor X): 4.1 nM
- Concentration (Prothrombin [4]): 0.73 µM

SMILES: CC(=N)N1CCC(Oc2ccc(NC/C(C)=C/c3cccc(C(=N)N)c3)cc2[N+](=O)[O-])CC1
- Ki (Serine protease 1): 5 nM
- Ki (Prothrombin [1]): 1550 nM
- Ki (Coagulation factor X): 0.07 nM

SMILES: CC(=N)N1CCC(Oc2ccc(N(C/C=C/c3cccc(C(=N)N)c3)C(=O)CCC(=O)O)cc2C(F)(F)F)CC1
- Ki (Serine protease 1): 110 nM
- Ki (Prothrombin [1]): 5000 nM
- Concentration (Prothrombin [3]): 540 µM
- Ki (Coagulation factor X): 0.28 nM
- Concentration (Prothrombin [4]): 0.75 µM

SMILES: CC(=N)N1CCC(Oc2ccc(N(C/C=C/c3cccc(C(=N)N)c3)C(=O)c3ccc(C(=O)O)c(C(=O)O)c3)cc2C(F)(F)F)CC1
- Ki (Serine protease 1): 10 nM
- Ki (Prothrombin [1]): 3260 nM
- Concentration (Prothrombin [3]): 200 µM
- Ki (Coagulation factor X): 0.56 nM
- Concentration (Prothrombin [4]): 0.52 µM

SMILES: CN1CCC(Oc2ccc(N(C/C=C/c3cc(C(=N)N)ccc3O)C(=O)CCC(=O)O)cc2C(F)(F)F)CC1
- Ki (Serine protease 1): 765 nM
- Ki (Prothrombin [1]): > 5000 nM
- Ki (Coagulation factor X): 0.28 nM

SMILES: CC(=N)N1CCC(Oc2ccc(NC/C=C/c3cccc(C(=N)N)c3)cc2[N+](=O)[O-])CC1
- Ki (Serine protease 1): 27 nM
- Ki (Prothrombin [1]): 2900 nM
- Ki (Coagulation factor X): 0.27 nM

SMILES: CCOC(=O)CCC(=O)N(C/C=C/c1cccc(C(=N)N)c1)c1ccc(OC2CCN(C(C)=N)CC2)c(C(F)(F)F)c1
- Ki (Serine protease 1): 76 nM
- Ki (Prothrombin [1]): 1000 nM
- Ratio [2]: 140
- Concentration (Prothrombin [3]): 32 µM
- Ki (Coagulation factor X): 0.55 nM
- Concentration (Prothrombin [4]): 0.87 µM

SMILES: CS(=O)(=O)N1CCC(Oc2ccc(NC/C=C/c3cc(C(=N)N)ccc3O)cc2C(F)(F)F)CC1
- Ki (Serine protease 1): 1250 nM
- Ki (Coagulation factor X): 44 nM

SMILES: CC(=N)N1CCC(Oc2ccc(NC/C=C/c3cccc(C(=N)N)c3)cc2C(F)(F)F)CC1
- Ki (Serine protease 1): 50 nM
- Ki (Prothrombin [1]): 2140 nM
- Concentration (Prothrombin [3]): 220 µM
- Ki (Coagulation factor X): 0.88 nM
- Concentration (Prothrombin [4]): 0.8 µM

SMILES: CCOC(=O)CCC(=O)N(C/C=C/c1cc(C(=N)N)ccc1O)c1ccc(OC2CCN(C(C)=N)CC2)c(C(F)(F)F)c1
- Ki (Serine protease 1): 230 nM
- Ki (Prothrombin [1]): 2280 nM
- Ratio [2]: 3300
- Concentration (Prothrombin [3]): 265 µM
- Ki (Coagulation factor X): 0.07 nM
- Concentration (Prothrombin [4]): 0.8 µM

SMILES: N=C(N)c1ccc(O)c(/C=C/CNc2ccc(OC3CCN(C(N)=O)CC3)c(C(F)(F)F)c2)c1
- Ki (Serine protease 1): 520 nM
- Ki (Prothrombin [1]): 250 nM
- Ki (Coagulation factor X): 7.3 nM

SMILES: CN1CCC(Oc2ccc(NC/C=C/c3cc(C(=N)N)ccc3O)cc2C(F)(F)F)CC1
- Ki (Serine protease 1): 630 nM
- Ki (Prothrombin [1]): 1820 nM
- Concentration (Prothrombin [3]): 156 µM
- Ki (Coagulation factor X): 0.58 nM
- Concentration (Prothrombin [4]): 0.98 µM

SMILES: CC(=N)N1CCC(Oc2ccc(NC/C=C/c3cccc(C(=N)N)c3)cc2)CC1
- Ki (Serine protease 1): 80 nM
- Ki (Prothrombin [1]): 5000 nM
- Ki (Coagulation factor X): 7.5 nM

SMILES: CC(=O)N1CCC(Oc2ccc(N(C/C=C/c3cc(C(=N)N)ccc3O)C(=O)CCC(=O)O)cc2C(F)(F)F)CC1
- Ki (Serine protease 1): 891 nM
- Ki (Prothrombin [1]): > 5500 nM
- Concentration (Prothrombin [3]): 173 µM
- Ki (Coagulation factor X): 3 nM
- Concentration (Prothrombin [4]): 3 µM

SMILES: CC(=O)N1CCC(Oc2ccc(NC/C=C/c3cc(C(=N)N)ccc3O)cc2C(F)(F)F)CC1
- Ki (Serine protease 1): 830 nM
- Ki (Prothrombin [1]): 480 nM
- Concentration (Prothrombin [3]): 151 µM
- Ki (Coagulation factor X): 18.5 nM
- Concentration (Prothrombin [4]): 21 µM

SMILES: CC(=N)N1CCC(Oc2ccc(NCc3cccc(-c4cccc(C(=N)N)c4)c3)cc2[N+](=O)[O-])CC1
- Ki (Serine protease 1): 42 nM
- Ki (Prothrombin [1]): 400 nM
- Ki (Coagulation factor X): 0.17 nM

SMILES: N=C(N)c1ccc(O)c(/C=C/CN(C(=O)CCC(=O)O)c2ccc(OC3CCN(CC(=O)O)CC3)c(C(F)(F)F)c2)c1
- Ki (Serine protease 1): 870 nM
- Ki (Prothrombin [1]): > 5000 nM
- Ki (Coagulation factor X): 0.34 nM

SMILES: CC(=N)N1CCC(Oc2ccc(N(C/C=C/c3cc(C(=N)N)ccc3O)C(=O)CCC(=O)O)cc2C(F)(F)F)CC1
- Ki (Serine protease 1): 280 nM
- Ki (Prothrombin [1]): 5140 nM
- Ratio [2]: 2800
- Concentration (Prothrombin [3]): 174 µM
- Ki (Coagulation factor X): 0.1 nM
- Concentration (Prothrombin [4]): 0.54 µM

Source: ChEMBL document CHEMBL1135303, “Design and synthesis of aminophenol-based factor Xa inhibitors” (Bioorg Med Chem Lett, 2002)
